Measured values as given in US12702648B2 (priority 2023, dated 2026).
≈ marks a conversion by molar mass, not a printed value.

What was measured:
Type in all cases: cell-based
human kidney 293T cells = assay: In vitro cytotoxicity test (MTS), 293T; settings: 72 h incubation, AmB concentration
Method: (§1) In vitro cytotoxicity test: The cytotoxicity of TDs and AmB loaded nanoparticles (NPs) were studied using murine macrophage-like RAW 264.7 cells and human kidney 293T cells via MTS assays. Briefly, cells were seeded in 96-well plates at a density of 6×10^3 (RAW 264.7) and 3×10^3 (293T) cells per well and incubated overnight (Dulbecco's modified Eagle's medium (DMEM) medium, 5% CO2, 37° C.). TDs or AmB nanoformulations with different concentrations were added into each well to treat the cells. After 72 h incubation, CellTiter 96 AQueous MTS reagent was added to each well according to the manufacturer's instructions. The cell viability was determined by measuring the absorbance at 490 nm using a microplate reader (BioTek Synergy H1) with the untreated cells as negative controls. Results were obtained as the average cell viability of triplicate experiments calculated by a formula of [(ODtreat−ODblank)/(ODcontrol−ODblank)×100%]. Statistical analysis: Statistical analysis was carried out using GraphPad Prism (GraphPad Software, California, USA). One-way analyses of variance (ANOVA) was used for two-group and multiple-group analyses. […] The half maximal inhibitory concentration (IC50) was calculated by nonlinear regression analysis ([Inhibitor] vs. response—Variable slope (four parameters)). The half-life was determined by nonlinear regression analysis (one-phase association).

[1] = tested on: murine macrophage-like RAW 264.7 cells; assay: In vitro cytotoxicity test (MTS), RAW 264.7; settings: 72 h incubation, AmB concentration
Method: as §1

C. albicans (ATCC 10231) = assay: In vitro antifungal activity (MIC, dilution method); settings: 5×10^6 cells/mL, 24 h at 25° C.
Method: In vitro antifungal activity: In order to study the influence of encapsulation of AmB in TDs on the antifungal activity of the drug, the minimal inhibitory concentration (MIC), defined as the lowest concentration inhibiting clearly visible growth of the fungi, was determined by dilution method. The antifungal agents were tested at AmB final concentration range of 0.0125-5 μg/mL. The testing was performed in 96-well plates. Cell suspensions of C. albicans were prepared in Sabouraud's broth and adjusted to a final concentration of 5×10^6 cells/mL (fungal count determined by microscopic counts on a hemocytometer). The 96-well plate was incubated for 24 h at 25° C. and record the lowest concentration of AmB that prevented visible growth of C. albicans.

C[C@@H]1[C@H](O)[C@@H](C)/C=C/C=C/C=C/C=C/C=C/C=C/C=C/[C@H](O[C@@H]2O[C@H](C)[C@@H](O)[C@H](N)[C@@H]2O)C[C@@H]2O[C@](O)(C[C@@H](O)C[C@@H](O)[C@H](O)CC[C@@H](O)C[C@@H](O)CC(=O)O[C@H]1C)C[C@H](O)[C@H]2C(=O)O [free AmB, Amphotericin B]
IC50 (cytotoxicity) to 293T (human kidney 293T cells): 4.3 µg/mL | IC50 (cytotoxicity) to RAW 264.7 [1]: 1.8 µg/mL | MIC (minimum inhibitory concentration) (C. albicans (ATCC 10231)): 0.05 µg/mL (≈ 0.0541 µM)
